Entries after “also recorded” stand apart in the source; their conditions may differ. Where two headings read alike, the source gives them in different places.
What was measured:
Foxn1 in C9 (cTEC) cells = test: Foxn1 expression by qPCR in C9 cells; assay type: cell-based, mouse
Experimental: (§1) FIGS. 7A, 7B. […] Graphs represent mean±SEM, each dot represents a biologically independent observation (n=3 independent experiments). *, p<0.05; **, p<0.01; ***p<0.001.
(§2) FIGS. 18A-18G. Thymuses were harvested at d0, d1, d2, and d3 after TBI (550 cGy) and (18A) mitochondrial membrane potential, (18B) Reactive oxygen species (ROS) levels, and (18C) glutathione levels were measured in DP thymocytes and cTECs (n=4-7 mice from 1-2 experiments). (18D) Foxn1 expression in FACs-purified cTECs at d0, d4, and d7 after TBI; (18E) Intracellular Ca2+ levels were measured on whole thymus harvested at d0, d2, d4, and d7 post SL-TBI. (18F, 18G) Foxn1 expression levels were measured by qPCR in (18F) C9, and (18G) TE71 cells after treatment with Tunicamycin (5 ug/ml) or Thapsigargan (1 μg/ml). Graphs represent mean+/−SD.
FIGS. 19A, 19B. (19A) C9s were treated with (19A) ATP and P2X7 antagonist or (19B) P2Y2 agonist or antagonist and FOXN1 expression was assessed by qPCR after 20 h. Graphs represent mean+/−SEM.
(§3) Cell cultures. exEC were generated as previously described (Seandel et al., Proc Natl Acad Sci USA. 2008, 105(49):19288-19293). Cells were cultured in presence of ultrapure Zn sulfate monohydrate purchased from Alfa Aesar (Haverhill, Mass. #1113809) or sodium pyrythione (Sigma Aldrich, St. Louis, Mo. #H3261-1G). TC-G 1008 was used in cell cultures at a final concentration of 25 μM. Silencing of the zinc receptor Gpr39 was performed by electroporation using Nucleofector electroporation kit (VPI-1001, Lonza; Program M-003, Nucleofector 2b, Lonza), and the GPR39 siRNA Silencer Select (Thermo, Waltham, Mass.). Mouse C9 (cTEC) and TE-71 (mTEC) cells were kindly provided by A. Farr, University of Washington.
PCR and Microarray. Reverse transcription-PCR was performed with iScript Clear gDNA cDNA synthesis kit (Bio Rad, Hercules, Calif.) on CFX96 (Bio Rad, Hercules, Calif.) with iTaq Universal SYBR Green (Bio Rad). Relative amounts of mRNA were calculated by the comparative AC(t) method or as relative expression. SYBR Green gene expression assays for qPCR, including Bmp4 (Mm00432087_m1), Foxn1 (Mm00433948_m1), beta-actin, Gpr39, Top1 were all purchased from Life Technologies (Carlsbad, Calif.) and Bio Rad (Hercules, Calif.). b-actin: synthesized by IDT, F: 5′-[…]-3′ (SEQ ID NO: 6), R: 5′-[…]-3′ (SEQ ID NO: 7). Top1: synthesized by IDT, sequences provided by PrimerBank, PrimerBank ID 6678399a1. Bmp4: Biorad qMmuCED0046239. Foxn1: Biorad qMmuCED0044924. Microarray data from CD45^− cells was analyzed on day 0, 4 and 7 as previously described (Wertheimer et al., Science Immunology. 2018, 3(19)) (GSE106982) and differential gene expression of Gpr39 was calculated.

[1] = system: C57BL/6 mice given sublethal TBI; test: Thymic regeneration after sublethal total body irradiation (SL-TBI, 550 cGy); assay type: in vivo, mouse; conditions: for thymic regeneration (thymus cellularity): day 14
Excerpt: FIGS. 4A-4G. […] (4A, 4B) 6-8 week-old female C57BL/6 mice were fed a normal or ZD diet for 21 days at which point mice were given a sublethal dose of total body irradiation (TBI, 550 cGy). (4A) Total thymic cellularity at days 7 and 14 after TBI (n=10/treatment/timepoint across two independent experiments). (4B) Total number of CD45-EpCAM^+MHCII^+UEA1^loLy51^hi (cTECs) and CD45^− EpCAM^+MHCII^+UEA1^hi Ly51^lo (mTECs) at days 7 and 14 after TBI (n=10/treatment/timepoint across two independent experiments). (4C) 6-12 week-old female BALB.B mice were fed with normal or ZD diet for 21 days, at which point mice were given a lethal dose of TBI (900cGy) and 10×10^6 T cell-depleted bone marrow (BM) cells from 6-8 week-old C57BL/6. One cohort also received 2×10^6 T cells to induce graft versus host disease (GVHD); thymic cellularity was quantified on day 14 after allogeneic hematopoietic stem cell transplant (allo-HCT, n=5-6/group). (4D) 6-8 week-old female C57BL/6 mice were fed with normal or ZD diet for 21 days at which point mice were given 550 cGy TBI and total thymus cellularity quantified on day 14. […] (4E) Total thymic cellularity. (4F) Total number of cTECs and mTECs. (4G) Total number of Ki-67+ thymic endothelial cells (TECs). […]

Bmp4 in exECs [2] = test: BMP4 protein by ELISA in exECs; assay type: cell-based, mouse
Experimental: FIGS. 10A-10F. G-protein coupled receptor 39 (GPR39) expressed by thymic endothelial cells is the central mediator of Zn-centered regeneration. […] Bmp4 expression was measured by qPCR (n=6 combined from two independent experiments). (10B) GPR39 expression across subsets in the thymus by flow cytometry at baseline. […] (10C) Expression of GPR39 on cTECs, mTECs, ECs and fibroblasts at days 0, 4, and 7 after TBI. […] BM P4 was measured by ELISA.

[3] = system: lineage-negative bone marrow (BM) co-cultured with OP9-DL1 cells; conditions: ZnSO4 10 μM added from day 0, read at day 30, versus control
Excerpt: Concatenated flow cytometry plots displaying CD4 and CD8 expression at day 30 (n=5 independent experiments).
To confirm the importance of Zn on T cell maturation, lineage-negative bone marrow (BM) isolated from C57BL/6 mice were co-cultured on the OP9-DLL1 system, which is able to support T cell development in vitro (Schmitt et al., Nat Immunol. 2004, 5(4):410-417; and Holmes et al., Cold Spring Harb Protoc. 2009, 2009(2):pdb prot5156).
OP9-DL1 cells were kindly provided by J. C. Zuniga-Pflucker, University of Toronto and cultured as previously described (Holmes et al., Cold Spring Harb Protoc. 2009, 2009(2):pdb prot5156) using lineage-negative BM (using a lineage depletion kit, Miltenyi Biotech, Germany). Flt-3L and IL-7 were purchased from Peprotech (Rocky Hill, N.J.).

C9 (cTEC) cells = conditions: graded doses of ZnSO4, 24 h
Experimental: as §1, §3
(§4) ELISA and Western Blot. Cell culture or tissue lysates were prepared in RIPA buffer (Thermo, Waltham, Mass.) as previously described (Wertheimer et al., Science Immunology. 2018, 3(19)) and normalized by BCA assay (Thermo, Waltham, Mass.). BMP4 levels were quantified by ELISA (LSBio, Seattle, Wash.) and read on a Spark 10M plate reader (Tecan, Switzerland). Cortisol levels were measured with ELISA on peripheral blood (R&D systems, Minneapolis, Minn.).

TE-71 (mTEC) cells = conditions: TE-71 cells, graded doses of ZnSO4, 24 h
Experimental: as §1, §3, §4

[4] = system: Foxn1 in TE-71 (mTEC) cells; test: Foxn1 expression by qPCR in TE-71 cells; assay type: cell-based, mouse
Experimental: as §2
PCR and Microarray. […] Bmp4: Biorad qMmuCED0046239. Foxn1: Biorad qMmuCED0044924.

[5] = 300 mg/kg/day ZnSO4 in drinking water for 21 days, Fluozin-3 and ICP-MS
Experimental: FIGS. 9A-9G. […] (9A, 9B) 6-8 week-old female C57BL/6 mice were given 550 cGy TBI and levels of Zn were measured by inductively coupled plasma mass spectrometry (ICP-MS). (9A) Total thymic amounts of Zn from both intracellular and extracellular fractions of thymus (n=6/timepoint). (9B) Extracellular Zn was measured only in thymic supernatants and the ratio of extracellular to total thymic Zn was calculated (n=6/timepoint). […] Thymocytes were isolated either before or 48 hours after TBI and co-cultured with exECs. Bmp4 expression was measured by qPCR at 24 hours (n=3-4/group). […] Thymus cellularity was measured at day 28 after TBI (n=4-5/group). (9E) 6-8 week-old female C57BL16 mice were fed a normal or ZD diet for 21 days after which thymocytes were isolated by CD90+ magnetic separation. Intracellular Zn levels were measured by staining with Fluozin-3 and assessed by flow cytometry (n=5/group across two independent experiments).

[6] = system: Bmp4 in endothelial cells (ECs); conditions: 300 mg/kg/day ZnSO4 21 days before TBI, ECs sorted at day 7
Excerpt: (§5) FIGS. 8A-8F. […] (8A) 6-8 week-old female C57BL/6 mice were fed a normal or ZD diet for 21 days at which point mice were given 550 cGy TBI. […] Levels of BMP4 were quantified by enzyme-linked immunoassay (ELISA) at day 10 after TBI (n=5-10/group from one independent experiment). […] Mice were maintained on Zn-supplemented drinking water for the duration of the study. (8B) BMP4 levels measured by ELISA at day 10 (n=9/group combined from three independent experiments). (8C) Endothelial cells (ECs) were fluorescence-activated cell sorting (FACS) purified at day 7 and Bmp4 expression was measured by qPCR (n=6/group combined from two independent experiments). […] Total thymus cellularity was quantified at day 10 after TBI (n=5/group from one independent experiment).
PCR and Microarray. Reverse transcription-PCR was performed with iScript Clear gDNA cDNA synthesis kit (Bio Rad, Hercules, Calif.) on CFX96 (Bio Rad, Hercules, Calif.) with iTaq Universal SYBR Green (Bio Rad). Relative amounts of mRNA were calculated by the comparative AC(t) method or as relative expression. […] Microarray data from CD45^− cells was analyzed on day 0, 4 and 7 as previously described (Wertheimer et al., Science Immunology. 2018, 3(19)) (GSE106982) and differential gene expression of Gpr39 was calculated.

Bmp4 in exECs [7] = test: Bmp4 expression by qPCR in exECs; assay type: cell-based, mouse; conditions: ZnSO4 50 and 100 μM, 24 hours
[8] = system: mice given TCD allo-HCT from RAG2-GFP donors; conditions: ZnSO4 in drinking water, peripheral blood and spleen after HCT, day 53
Experimental: FIGS. 12A-12D. […] (12A). […] (12B) Splenic T cells were analyzed for GFP expression on day 53 (n=4-5/group).

BMP4 = system: BMP4
Excerpt: as §5, §4

ERK1/2 = conditions: exECs stimulated with Zn
Excerpt: Flow cytometry, multidimensional analyses, and FACS sorting. For flow cytometry and cell sorting, surface antibodies against CD45 (30-F11), CD31 (390 or MEC13.3), CD90.2 (30-H12), TER-119 (TER-119), CD4 (RM4-5 or GK1.5), CD8 (53-6.7), TCRβ (H57-597), CD3 (145-2C11), CD44 (IM7), CD25 (PC 61.5), CD62L (MEL14), MHC-II IA/IE (M5/114.15.2), EpCAM (G8.8), Ly51 (6C3), CD11c (HL3), IL-7Ra (A7R34), CCR6 (140706), CD45.1 (A20), CD45.2 (104), ki-67 (16A8), and PDGFRa (APAS) were purchased from BD Biosciences (Franklin Lakes, N.J.), BioLegend (San Diego, Calif.) or eBioscience (San Diego, Calif.). Ulex europaeus agglutinin 1 (UEA-1), conjugated to FITC or Biotin, was purchased from Vector Laboratories (Burlingame, Calif.). GPR39 conjugated to FITC was purchased from Signalway Antibody (College Park, Md.). Red blood cell lysis was performed with ACK buffer (Thermo Scientific, Waltham, Mass.). Flow cytometry was performed on a Fortessa X50 (BD Biosciences, Franklin Lakes, N.J.) and cells were sorted on an Aria II (BD Biosciences) using FACSDiva (BD Biosciences, Franklin Lakes, N.J.). For intracellular cytokine or phosphoprotein analysis, cells were fixed and permeabilized using Fix Buffer I and Phospho-Perm Buffer III from BD Bioscience (Franklin Lakes, N.J.). Fluozin-3 AM was purchased from Thermo Fisher (Waltham, Mass.). Analysis was performed by FlowJo (Treestar Software, Ashland, Oreg.).

Cc1ccc2c(c1)C=Cc1cc(C)ccc1C2c1cn(Cc2ccc(C(=O)Nc3nn[nH]n3)o2)c(=O)[nH]c1=S [AR-C 1182925XX]
effect on P2Y2 agonist-induced Foxn1 expression (Foxn1 in C9 (cTEC) cells; C9 cells, P2Y2 antagonist, 20 h): reversed

Nc1ncnc2c1ncn2[C@@H]1O[C@H](COP(=O)(O)OP(=O)(O)OP(=O)(O)O)[C@@H](O)[C@H]1O [ATP]
thymic regeneration (thymus cellularity) ([1]; ATP by intraperitoneal injection at d3 after SL-TBI (legend: 5 mg/kg bzATP)): superior thymic regeneration; also recorded: enhancing thymus cellularity
Foxn1 expression (Foxn1 in C9 (cTEC) cells; C9 cells, ATP, 20 h): potent inducer of FOXN1

Nc1[nH]nc2nnc(-c3c(-c4ccccc4)nn4ccccc34)cc12 [FR180204]
BMP4 production (Bmp4 in exECs [2]; ERK inhibitor FR180204 prior to ZnSO4 (100 μM), 24 hours): BMP4 production was abrogated

O=c1ccn([C@@H]2O[C@H](COP(=O)([O-])OP(=O)([O-])OP(=O)([O-])OP(=O)([O-])Oc3ccccc3)[C@@H](O)[C@H]2O)c(=O)[nH]1.[Na+].[Na+].[Na+].[Na+] [MRS 2768, tetrasodium; [[(2R,3S,4R,5R)-5-(2,4-dioxopyrimidin-1-yl)-3,4-dihydroxyoxolan-2-yl]methoxy-oxidophosphoryl] [oxido-[oxido(phenoxy)phosphoryl]oxyphosphoryl] phosphate]
thymic regeneration (thymus cellularity) ([1]; MRS 2768 5 mg/kg IP at day 3 after 550 cGy TBI, 5 mg/kg): superior thymic regeneration; also recorded: enhancing thymus cellularity
cTEC numbers ([1]; MRS 2768 5 mg/kg, d13 following TBI, 5 mg/kg): increased cTEC numbers; also recorded: expanding cTECs
Foxn1 expression (Foxn1 in C9 (cTEC) cells): increase in Foxn1 expression

O=S(=O)([O-])[O-].[Zn+2] [ZnSO4, zinc sulphate]
production of DP (CD4+CD8+) cells [3]: more robust production of DP
Foxn1 expression (Foxn1 in C9 (cTEC) cells; C9 cells, 100 μM ZnSO4, 24 h): did not show any direct effect
BMP4 protein (Bmp4 in exECs [2]; ZnSO4, 48 hours): confirmed at the protein level
TEC proliferation (C9 (cTEC) cells): did not show any direct effect
TEC proliferation (TE-71 (mTEC) cells): did not show any direct effect
Foxn1 expression ([4]; TE-71 cells, 100 μM ZnSO4, 24 h): did not show any direct effect
intracellular Zn in thymocytes [5]: significantly increased levels of intracellular Zn
Bmp4 expression in purified ECs [6]: increased expression of Bmp4
transcription of Bmp4 (Bmp4 in exECs [7]): dose-dependent increase
GFP+ CD4+ and CD8+ lymphocytes (recent thymic emigrants) [8]: higher levels of GFP+CD4+ and CD8+ lymphocytes
BMP4 levels in the thymus (BMP4; 300 mg/kg/day ZnSO4 21 days before TBI without prior ZD, day 10): increased levels of BMP4
BMP4 levels in the thymus (BMP4; ZD diet 21 days, 550 cGy TBI, 300 mg/kg/day ZnSO4 in drinking water from day 0, day 10): restored BMP4 levels
phosphorylation of ERK1/2 (ERK1/2): led to phosphorylation of ERK1/2

C/C=C(/C)C(=O)O[C@H]1C(C)=C2[C@H]([C@@H]1OC(=O)CCCCCCC)[C@@](C)(OC(C)=O)C[C@H](OC(=O)CCC)[C@@]1(O)[C@H]2OC(=O)[C@@]1(C)O [thapsigargan]
effect on tunicamycin-induced Foxn1 expression (Foxn1 in C9 (cTEC) cells; C9 cells, Thapsigargan 1 μg/ml): reversed
effect on tunicamycin-induced Foxn1 expression ([4]; TE71 cells, Thapsigargan 1 μg/ml): reversed

tunicamycin
Foxn1 expression (Foxn1 in C9 (cTEC) cells; C9 cells, Tunicamycin 5 ug/ml): induced Foxn1 expression
Foxn1 expression ([4]; TE71 cells, Tunicamycin 5 ug/ml): induced Foxn1 expression

Reference: patent US20230263800A1, “COMPOSITIONS AND METHODS TO PROMOTE THYMIC FUNCTION” (Fred Hutchinson Cancer Center, priority 2020, published 2023)
